Reference: US12390487B2, “Antiseptic skin prep composition” (Solventum Intellectual Properties Company, priority 2019, dated 2025)

Assay: Solubility of dye in alcohol systems
Type: physicochemical
Source text: It was observed that, Ponceau 4R Dye precipitated on the second day. The others (Brilliant Blue, D&C Green, Carmoisine) were stable over 30 days at room temperature with no precipitation observed. PVPK 120 postpones the precipitation of anionic dyes with CHG to various degrees. It was observed that the azo dye structure with 3 sulphonate groups precipitated out of solution quicker.

O=C1OC2(c3ccccc31)c1cc(I)c(O)c(I)c1Oc1c2cc(I)c(O)c1I [Erythrosine]
Solubility in alcohol systems: good solubility
